Data published in patent US20220370453A1 (Storm Therapeutics Ltd, priority 2019, published 2022).

Key:
[1] = target: T1, BCDIN3D (Homo sapiens, UniProt Q7Z5W3); test: BCDIN3D IC50 RFMS (RapidFire) assay with mini-helix; format: biochemical; details: mini-helix 0.2 μM and SAM 6 μM as substrates, 25 nM enzyme, 1 hr at 37° C.
T1 sequence (Q7Z5W3 1-292): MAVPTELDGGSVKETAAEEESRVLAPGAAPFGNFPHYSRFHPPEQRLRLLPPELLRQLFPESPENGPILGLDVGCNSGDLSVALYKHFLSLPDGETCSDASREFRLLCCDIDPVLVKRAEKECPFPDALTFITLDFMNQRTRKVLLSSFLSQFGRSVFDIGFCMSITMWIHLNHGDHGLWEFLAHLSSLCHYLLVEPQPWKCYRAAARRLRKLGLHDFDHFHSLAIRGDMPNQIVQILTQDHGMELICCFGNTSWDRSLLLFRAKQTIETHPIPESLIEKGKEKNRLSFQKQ
Description: The following General Methods details the assay conditions for the Biological assays.
BCDIN3D IC50 RFMS Assay with Mini-Helix
The enzymatic assay was performed in a 384-well polypropylene plate in assay buffer with 25 mM Tris pH 8.0, 10 mM DTT, 1 mM EDTA, 0.03% BSA in a final assay volume of 20 μL. The enzyme with a final concentration of 25 nM was pre-incubated with the respective compound at 1% DMSO final assay concentration over 10 min at room temperature. The reaction was initiated by addition of 0.2 μM final assay concentration of mini-helix and 6 μM final concentration of SAM as substrates. After a 1 hr incubation at 37° C., the reaction was terminated with 40 μL of stop solution of 7.5% trichloroactetic acid in water containing 112.5 nM D4-SAH and 30 nM ^13C10-SAH used as internal standards. The SAH product concentrations as well as both internal standards were analyzed by a RapidFire High Throughput Mass Spectrometry System (Agilent Technologies, Santa Clara, Calif.) using an AP14000 triple quadrupole mass spectrometer (AB Sciex Framingham, Mass.).

[2] = target: T1, BCDIN3D; test: BCDIN3D InCellPulse thermal stability assay in transfected A549 cells; format: cell-based; details: A549 cells transiently transfected with ePL-BCDIN3D, 1 h pre-incubation, heat shock 58° C. 15 min
Description: BCDIN3D InCellPulse™ Assay
The thermal stability assay was performed with lipofectamine 3000 transiently transfected A549 using the plasmid pICP-ePL-BCDIN3 Da. This plasmid encodes for BCDIN3D N-terminally fused to a Prolabel (ePL), complementing a split β-Galactosidase Enzyme System InCELL Pulse Technology (InCELL Hunter Detection Kit, DiscoverX/Eurofins, cat: 96-0079L). 20 μl A549 cells (1500 cell/well) were added with a multidrop device to compounds to a final DMSO concentration of 0.6% in 384-well polypropylene plate format in IMDM medium and pre-incubated with the compounds for 1 h at 37° C. and 5% CO2. Subsequently, a heat shock was applied to the entire sealed plate in a 58° C. water bath for 15 min. The plates were cooled to RT, spun down and 25 μl/well of EA Detection Solution at 3.3× (InCELL Hunter Detection Kit) was added per well. 21 μl of the mixture was added to a black 384-well measurement plate (Corning, PS, black, Flat Bottom, #3575), mix for 30 minutes on a plate shaker at RT. Finally, the luminescence was measured with a Perkin Elmer EnVision with 0.2 s measurement time in luminescence mode.

SMILES | IC50 [1] | IC50 [2]
CNc1nc(NC[C@@](C)(N)c2ccccc2)nc2c1cnn2C (single isomer, unassigned) [Compound 7.10] | 7650 nM | 10800 nM
Cn1ncc2c(Nc3ccc(C(F)(F)F)nc3)nc(NC[C@](C)(N)c3ccccc3)nc21 (single isomer, unassigned) [Compound 7.13] | 2620 nM | 6000 nM
Cn1ncc2c(Nc3ccc(C(F)(F)F)nc3)nc(NCC(C)(N)c3ccccc3)nc21 (single isomer, unassigned) [Compound 7.15] | 38.1 nM | 133 nM
[2H]C([2H])([2H])n1ncc2c(NC(C)(C)C)nc(NCC(N)c3ccccc3F)nc21 (stereo in doubt) [Compound 7.17, N6-[(2S)-2-amino-2-(2-fluorophenyl)ethyl]-N4-tert-butyl-1-(trideuteriomethyl)pyrazolo[3,4-d]pyrimidine-4,6-diamine] | 981 nM | 2140 nM
Cn1ncc2c(Nc3ccc(C(F)(F)F)cc3)nc(NCCN)nc21 [Compound 1.01, N6-(2-Aminoethyl)-1-methyl-N4-[4-(trifluoromethyl)phenyl]pyrazolo[3,4-d]pyrimidine-4,6-diamine] | 1980 nM | 3330 nM
Cn1ncc2c(Nc3ccc(Oc4ccccc4)cc3)nc(NCCN)nc21 [Compound 1.03, N6-(2-aminoethyl)-1-methyl-N4-(4-phenoxyphenyl)-1H-pyrazolo[3,4-d]pyrimidine-4,6-diamine] | 975 nM | 918 nM
Cn1ncc2c(Nc3cccc(Oc4ccccc4)c3)nc(NCCN)nc21 [Compound 1.04, N6-(2-aminoethyl)-1-methyl-N4-(3-phenoxyphenyl)-1H-pyrazolo[3,4-d]pyrimidine-4,6-diamine] | 1260 nM | 1530 nM
Cn1ncc2c(NCc3ccc(-c4ccccc4)cc3)nc(NCCN)nc21 [Compound 1.05, N6-(2-aminoethyl)-1-methyl-N4-[(4-phenylphenyl)methyl]pyrazolo[3,4-d]pyrimidine-4,6-diamine] | 2210 nM | 2970 nM
COc1ccc(C(C)Nc2nc(NCCN)nc3c2cnn3C)cc1Cl (centres unmarked) [Compound 1.06, N6-(2-aminoethyl)-N4-[1-(3-chloro-4-methoxyphenyl)ethyl]-1-methyl-1H-pyrazolo[3,4-d]pyrimidine-4,6-diamine] | 1680 nM | 2930 nM
COc1cccc(-c2cccc(Nc3nc(NCCN)nc4c3cnn4C)c2)c1 [Compound 1.11, N6-(2-aminoethyl)-N4-{3′-methoxy-[1,1′-biphenyl]-3-yl}-1-methyl-1H-pyrazolo[3,4-d]pyrimidine-4,6-diamine] | 762 nM | 1060 nM
COc1cccc(-c2ccc(Nc3nc(NCCN)nc4c3cnn4C)cc2)c1 [Compound 1.14, N6-(2-aminoethyl)-N4-{3′-methoxy-[1,1′-biphenyl]-4-yl}-1-methyl-1H-pyrazolo[3,4-d]pyrimidine-4,6-diamine] | 568 nM | 754 nM
COc1ccc(-c2cccc(Nc3nc(NCCN)nc4c3cnn4C)c2)cc1 [Compound 1.15, N6-(2-aminoethyl)-N4-{4′-methoxy-[1,1′-biphenyl]-3-yl}-1-methyl-1H-pyrazolo[3,4-d]pyrimidine-4,6-diamine] | 541 nM | 1020 nM
Cn1ncc2c(Nc3cccc(-c4ccccc4)c3)nc(NCCN)nc21 [Compound 1.16, N6-(2-aminoethyl)-N4-{[1,1′-biphenyl]-3-yl}-1-methyl-1H-pyrazolo[3,4-d]pyrimidine-4,6-diamine] | 744 nM | 1700 nM
COc1ccc(Nc2nc(NCCN)nc3c2cnn3C)cc1Cl [Compound 1.21, N6-(2-aminoethyl)-N4-(3-chloro-4-methoxyphenyl)-1-methyl-1H-pyrazolo[3,4-d]pyrimidine-4,6-diamine] | 1150 nM | 8070 nM
Cn1ncc2c(NCc3cccc(C(F)(F)F)c3)nc(NCCN)nc21 [Compound 1.23, N6-(2-aminoethyl)-1-methyl-N4-{[3-(trifluoromethyl)phenyl]methyl}-1H-pyrazolo[3,4-d]pyrimidine-4,6-diamine] | 7720 nM | 8470 nM
COc1ccc(CNc2nc(NCCN)nc3c2cnn3C)c(OC)c1 [Compound 1.24, N6-(2-aminoethyl)-N4-[(2,4-dimethoxyphenyl)methyl]-1-methyl-1H-pyrazolo[3,4-d]pyrimidine-4,6-diamine] | 2250 nM | 10600 nM
COc1ccc(CNc2nc(NCCN)nc3c2cnn3C)cc1Cl [Compound 1.25, N6-(2-aminoethyl)-N4-[(3-chloro-4-methoxyphenyl)methyl]-1methyl-1H-pyrazolo[3,4-d]pyrimidine-4,6-diamine] | 1660 nM | 7720 nM
COc1ccc(CNc2nc(NCC(C)(C)N)nc3c2cnn3C)cc1Cl [Compound 1.26, N6-(2-amino-2-methylpropyl)-N4-[(3-chloro-4-methoxyphenyl)methyl]-1-methyl-1H-pyrazolo[3,4-d]pyrimidine-4,6-diamine] | 744 nM | 1870 nM
COc1ccc(CNc2nc(NCC(C)(C)N)nc3c2cnn3C)cc1 [Compound 1.27, N6-(2-amino-2-methylpropyl)-N4-[(4-methoxyphenyl)methyl]-1-methyl-1H-pyrazolo[3,4-d]pyrimidine-4,6-diamine] | 2880 nM | 5340 nM
Cn1ncc2c(NCc3ccc(-c4ccccc4)cc3)nc(NCC(C)(C)N)nc21 [Compound 1.28, N6-(2-amino-2-methylpropyl)-N4-({[1,1′-biphenyl]-4-yl}methyl)-1-methyl-1H-pyrazolo[3,4-d]pyrimidine-4,6-diamine] | 1110 nM | 765 nM
COc1ccc(CNc2nc(NCC(C)(C)N)nc3c2c(C)nn3C)cc1Cl [Compound 1.30, N6-(2-amino-2-methylpropyl)-N4-[(3-chloro-4-methoxyphenyl)methyl]-1,3-dimethyl-1H-pyrazolo[3,4-d]pyrimidine-4,6-diamine] | 1850 nM | 3790 nM
Cc1nn(C)c2nc(NCC(C)(C)N)nc(NCc3ccc(-c4ccccc4)cc3)c12 [Compound 1.31, N6-(2-amino-2-methylpropyl)-N4-({[1,1′-biphenyl]-4-yl}methyl)-1,3-dimethyl-1H-pyrazolo[3,4-d]pyrimidine-4,6-diamine] | 950 nM | 814 nM
Cc1ccc(CNc2nc(N[C@@H]3CCCC[C@H]3N)nc3c2cnn3C)cc1Cl [Compound 7.03, 6-N-[(1R,2R)-2-aminocyclohexyl]-4-N-[(3-chloro-4-methylphenyl)methyl]-1-methylpyrazolo[3,4-d]pyrimidine-4,6-diamine] | 8580 nM | –
Cn1ncc2c(NC(C)(C)C)nc(NC[C@H](N)c3ccccc3F)nc21 [Compound 7.12, N6-[(2R)-2-amino-2-(2-fluorophenyl)ethyl]-N4-tert-butyl-1-methyl-pyrazolo[3,4-d]pyrimidine-4,6-diamine] | – | 2150 nM
Cn1ncc2c(NC(C)(C)C)nc(NC[C@H](N)c3ccc(F)c(F)c3)nc21 [Compound 7.20, N6-[(2R)-2-amino-2-(3,4-difluorophenyl)ethyl]-N4-tert-butyl-1-methyl-1H-pyrazolo[3,4-d]pyrimidine-4,6-diamine] | 800 nM | –
Cn1ncc2c(NC(C)(C)C)nc(NC[C@@H](N)c3ccc(F)c(F)c3)nc21 [Compound 7.21, N6-[(2S)-2-amino-2-(3,4-difluorophenyl)ethyl]-N4-tert-butyl-1-methyl-1H-pyrazolo[3,4-d]pyrimidine-4,6-diamine] | 4.62 nM | –
Cn1ncc2c(NC(C)(C)C)nc(NC[C@H](N)C3CCCCC3)nc21 [Compound 7.22, N6-[(2R)-2-amino-2-cyclohexylethyl]-N4-tert-butyl-1-methyl-1H-pyrazolo[3,4-d]pyrimidine-4,6-diamine] | 800 nM | –
Cn1ncc2c(NC(C)(C)C)nc(NC[C@@H](N)C3CCCCC3)nc21 [Compound 7.23, N6-[(2S)-2-amino-2-cyclohexylethyl]-N4-tert-butyl-1-methyl-1H-pyrazolo[3,4-d]pyrimidine-4,6-diamine] | 5170 nM | –
